Entries after “also recorded” stand apart in the source; their conditions may differ.
Key:
[1] = tested on: triple-negative breast cancer (TNBC) cell lines; assay: Live cell ATP sensor imaging after compound treatment, TNBC cell lines; format: cell-based
Experimental: (§1) Cancer cell lines stably expressing a genetically encoded, fluorescent ATP sensor or a control (non-ATP binding) sensor were generated. Cell lines were cultured in recommended media conditions except for studies evaluating the effects of the glutaminase-1 (GLS1) inhibitor CB-839, for which cells were adapted to RPMI supplemented with 10% FBS prior to experimentation. […] Cellular ATP levels were measured over the course of hours to days following compound treatment.
(§2) A live cell imaging approach was then utilized to evaluate the effect of cancer therapeutics on ATP levels in tumor cell lines, focusing primarily on compounds that target metabolic vulnerabilities. […] Quantification of phase confluence confirmed that sustained decreases in ATP were associated with enhanced antiproliferative efficacy compared to conditions under which recovery of ATP levels were observed.

[2] = tested on: receptor-positive breast cancer lines; assay: Live cell ATP sensor imaging after compound treatment, receptor-positive breast cancer lines; format: cell-based
Experimental: as §1, §2

O=C(Cc1cccc(OC(F)(F)F)c1)Nc1ccc(CCCCc2nnc(NC(=O)Cc3ccccn3)s2)nn1 [CB-839]
effect on ATP levels in co-culture ([1]; TNBC cultured on a monolayer of CCD-1068Sk fibroblasts): diminished effects on ATP levels; also recorded: attenuated by co-culture with CCD-1068Sk fibroblasts
effect on ATP levels ([1]; TNBC, mono-culture, three-day time course): rapid drop in ATP; also recorded: remained below that of vehicle-treated cells for the duration of the three-day time course; also recorded: prolonged ATP depletion
effect on ATP levels ([2]; receptor-positive cell lines, mono-culture): no change to more modest decreases in ATP
time to recovery of ATP levels ([2]; receptor-positive cells): ≤ 48 h
effect of co-culture on the ATP response ([2]; receptor-positive lines with CCD-1068Sk fibroblasts): unaffected by the presence of CCD-1068Sk fibroblasts

Source: patent US12158470B2, “Methods and compositions for live cell analysis of intracellular ATP” (Sartorius BioAnalytical Instruments, Inc., priority 2018, dated 2024)
